The text below walks through data of US20120232070A1, “Use of Indole Derivatives as Nurr-1 Activators for the Application Thereof as a Medicament for the Treatment of Parkinson's Disease” (Laboratoires Fournier SA, priority 2009, published 2012).

Structures are written as SMILES.

Assay [1] has as its target hNurr1_RXRγFL (NURR1/RXRγ heterodimer) (Homo sapiens, UniProt P43354+P48443). In words: Transactivation assay in Cos-7 cells, NURR-1-Gal4 / RXRγ, luciferase reporter. The class given is cell-based. To be noted: for Emax: COS-7, read-out: hNurr1_RXRγFL Eff (%), efficacy in % relative to the reference XCT0135908 at 2·10^−5 M (=100%); for EC50: Cos-7 cells, overnight incubation. Here is the method: (§1) First, the capacity of the compounds according to the invention for acting as an activator of the heterodimers formed by the NURR-1 nuclear receptor and the RXR nuclear receptors was measured by an in vitro assay.
(§2) A transactivation assay was used as a primary screening assay. Cos-7 cells were co-transfected with a plasmid expressing a chimera of the human receptor NURR-1-Gal4, a plasmid expressing the human receptor RXR (RXRα or RXRγ receptor) and a reporter plasmid 5Gal4pGL3-TK-Luc. The transfections were performed by means of a chemical agent (Jet PEI).
(§3) The transfected cells were distributed in 384-well plates and left resting for 24 hours.
(§4) After 24 hours, the culture medium was changed. The products according to the invention were added (final concentration between 10^−4 and 3·10^−10 M) to the culture medium. After overnight incubation, luciferase expression was measured after addition of “SteadyGlo” according to the manufacturer's instructions (Promega).
(§5) 4-[[6-Methyl-2-phenyl-5-(2-prop enyl)-4-pyrimidinyl]amino]-benzoic acid (called XCT0135908, which was described in the article by Wallen-Mackenzie et al. published in Genes & Development 17, pages 3036-3047) at 2·10^−5 M (RXR agonist) was used as reference.
(§6) The levels of induction (designated by “efficiency”) were calculated relative to the baseline activity of each heterodimer. The results were expressed as a percentage of the level of induction relative to the level of induction obtained with the reference (the level of induction of the reference is arbitrarily taken to be 100%).

Assay [2] has as its target hNurr1_RXRαFL (NURR1/RXRα heterodimer) (Homo sapiens, UniProt P19793+P43354). The assay can be described thus: Transactivation assay in Cos-7 cells, NURR-1-Gal4 / RXRα, luciferase reporter. To be noted: for Emax: COS-7, read-out: hNurr1_RXRαFL Eff (%), efficacy in % relative to the reference XCT0135908 at 2·10^−5 M (=100%); for EC50: Cos-7 cells, overnight incubation. The assay is classed as cell-based. Here is the method: as §1, §2, §3, §4, §5, §6
Background: In a reporter assay the amount or activity of a reporter protein is the signal.

The mark [3] stands for this setting: efficacy in % relative to the reference XCT0135908 at 2·10^−5 M (=100%).

Sequence of hNurr1_RXRγFL (NURR1/RXRγ heterodimer) (P43354 328-598): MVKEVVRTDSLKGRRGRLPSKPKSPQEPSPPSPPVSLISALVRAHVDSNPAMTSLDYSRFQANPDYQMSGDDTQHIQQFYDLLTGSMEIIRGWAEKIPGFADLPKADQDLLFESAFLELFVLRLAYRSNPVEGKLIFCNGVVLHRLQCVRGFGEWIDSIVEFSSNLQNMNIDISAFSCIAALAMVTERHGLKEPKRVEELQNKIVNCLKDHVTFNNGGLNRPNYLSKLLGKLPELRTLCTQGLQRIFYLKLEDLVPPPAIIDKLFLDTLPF
Sequence of hNurr1_RXRγFL (NURR1/RXRγ heterodimer) (P48443 whole entry, the tested form may be a part): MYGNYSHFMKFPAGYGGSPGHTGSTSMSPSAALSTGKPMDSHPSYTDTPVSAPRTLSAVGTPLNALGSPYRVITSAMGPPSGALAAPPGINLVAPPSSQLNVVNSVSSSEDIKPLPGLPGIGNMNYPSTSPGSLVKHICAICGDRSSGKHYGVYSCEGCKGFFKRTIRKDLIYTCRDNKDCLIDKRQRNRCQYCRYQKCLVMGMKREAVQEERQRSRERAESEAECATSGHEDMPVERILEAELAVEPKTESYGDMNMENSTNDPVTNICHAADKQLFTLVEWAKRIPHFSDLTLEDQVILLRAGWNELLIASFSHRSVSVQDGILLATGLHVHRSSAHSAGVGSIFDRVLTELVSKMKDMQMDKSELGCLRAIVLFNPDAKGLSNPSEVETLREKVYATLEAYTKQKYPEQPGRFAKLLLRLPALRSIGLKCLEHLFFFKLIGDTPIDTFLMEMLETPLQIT
Sequence of hNurr1_RXRαFL (NURR1/RXRα heterodimer) (P19793 whole entry, the tested form may be a part): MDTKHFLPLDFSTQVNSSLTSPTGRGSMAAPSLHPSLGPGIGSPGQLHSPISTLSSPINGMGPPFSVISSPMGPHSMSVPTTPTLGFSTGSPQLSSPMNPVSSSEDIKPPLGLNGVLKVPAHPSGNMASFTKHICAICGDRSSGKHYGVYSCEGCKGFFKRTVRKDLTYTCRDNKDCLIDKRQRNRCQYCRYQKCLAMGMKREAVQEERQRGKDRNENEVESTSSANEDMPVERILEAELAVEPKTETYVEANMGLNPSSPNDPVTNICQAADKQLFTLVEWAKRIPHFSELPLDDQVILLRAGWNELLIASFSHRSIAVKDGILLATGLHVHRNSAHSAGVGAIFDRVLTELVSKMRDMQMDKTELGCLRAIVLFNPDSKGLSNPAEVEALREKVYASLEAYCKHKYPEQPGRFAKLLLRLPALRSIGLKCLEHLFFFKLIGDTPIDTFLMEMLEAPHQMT
Sequence of hNurr1_RXRαFL (NURR1/RXRα heterodimer) (P43354 328-598): as the sequence (P43354 328-598) above

The term EC50 denotes the midpoint of the concentration-response curve. Lower therefore signals greater potency. As to `O=C(O)c1ccc(Cc2cc3cc(Cl)ccc3n2S(=O)(=O)c2ccc(Oc3ccccc3)nc2)cc1` [Example 175, 4-[[5-chloro-1-[(6-phenoxy-3-pyridinyl)sulfonyl]-1H-indol-2-yl]methyl]benzoic acid], in assay [1], the Emax came to 14% and the EC50 was greater than 10000 nM. Also, in assay [2], the Emax is 38% and the EC50 was 331 nM.
As for `CC(C)c1cccc(S(=O)(=O)n2c(Cc3ccc(C(=O)O)cc3)cc3cc(C(F)(F)F)ccc32)c1` [Example 114, 4-[[1-[[3-(1-methylethyl)phenyl]sulfonyl]-5-(trifluoromethyl)-1H-indol-2-yl]methyl]benzoic acid], the values for the EC50 in assay [1] and in assay [2] were 145 nM and 63 nM, respectively. Moreover, the “hNurr1_RXRγFL Eff (%)” value in assay [1] (setting [3]) is 76%. The “hNurr1_RXRαFL Eff (%)” value in assay [2] (setting [3]) is recorded as 109%.
Consider `CC1(C)CCc2ccc(S(=O)(=O)n3c(Cc4ccc(C(=O)O)cc4)cc4cc(Cl)ccc43)cc2O1` [Example 173, 4-[[5-chloro-1-[(3,4-dihydro-2,2-dimethyl-2H-1-benzopyran-7-yl)sulfonyl]-1H-indol-2-yl]methyl]-benzoic acid], for which, in assay [1], the Emax stood at 73% and the EC50 was determined as 498 nM. Moreover, in assay [2], the Emax came to 78% and the EC50 amounted to 145 nM.
For `COC(=O)c1ccc(Cc2cc3cc(C(F)(F)F)c(F)cc3n2S(=O)(=O)c2cccc(C(C)(C)C)c2)cc1` [Example 110, 4-[[1-[[3-(1,1-dimethylethyl)phenyl]sulfonyl]-5-(trifluoro)-6-fluoro-1H-indol-2-yl]methyl]benzoic acid, methyl ester] the same measures were 95%, 63 nM, 92% and 15 nM.
For `O=C(O)c1ccc(Cc2cc3cc(Cl)ccc3n2S(=O)(=O)c2ccc3c(c2)OCCO3)s1` [Example 77, 5-[[5-chloro-1-[(2,3-dihydro-benzo[1,4]dioxin-6-yl)sulfonyl]-1H-indol-2-yl]methyl]-thiophene-2-carboxylic acid] the same measures were 38%, 457 nM, 74% and 224 nM.
On the same counts, the results for `O=C(O)c1ccc(Cc2cc3cc(C(F)(F)F)ccc3n2S(=O)(=O)c2cccc(OC(F)(F)F)c2)cc1` [Example 145, 4-[[1-[3-trifluoromethoxy-phenylsulfonyl]-5-(trifluoromethyl)-1H-indol-2-yl]methyl]benzoic acid] are 21%, 638 nM, 44% and 359 nM.
Turning to `Cc1ccc(S(=O)(=O)n2c(Cc3ccc(C(=O)O)cc3)cc3cc(Cl)ccc32)cc1` [Example 171, 4-[[5-chloro-1-[(4-methylphenyl)sulfonyl]-1H-indol-2-yl]methyl]benzoic acid], in assay [1], the Emax is 31% and the EC50 was determined as 944 nM. Moreover, in assay [2], the Emax came out at 40% and the EC50 came out at 510 nM.
As to `CC(C)c1ccc(S(=O)(=O)n2c(Cc3ccc(C(=O)O)cc3)cc3cc(C(F)(F)F)ccc32)cc1` [Example 43, 4-[[1-[[4-(1-methylethyl)phenyl]sulfonyl]-5-(trifluoromethyl)-1H-indol-2-yl]methyl]benzoic acid], in assay [1], the Emax came out at 79% and the EC50 was 616 nM. Moreover, in assay [2], the Emax amounted to 73% and the EC50 is 291 nM.
For `COC(=O)c1ccc(Cc2cc3cc(C(F)(F)F)ccc3n2S(=O)(=O)c2cccc(C(C)(C)C)c2)s1` [Example 190, 5-[[1-[[3-(1,1-dimethylethyl)-phenyl]sulfonyl]-5-trifluoromethyl-1H-indol-2-yl]-methyl]-thiophene-2-carboxylic acid, methyl ester] the same measures were 107%, 13 nM, 97% and 0.2 nM.
For `CC(C)c1ccc(S(=O)(=O)n2c(Cc3ccc(C(=O)O)c(O)c3)cc3cc(C(F)(F)F)ccc32)cc1` [Example 68, 2-hydroxy-4-[[1-[[4-(1-methylethyl)phenyl]sulfonyl]-5-(trifluoromethyl)-1H-indol-2-yl]methyl]-benzoic acid] the same measures were 43%, 553 nM, 51% and 343 nM.
On the same counts, the results for `CCCOc1ccc(S(=O)(=O)n2c(Cc3ccc(C(=O)O)cc3)cc3cc(C(F)(F)F)ccc32)cc1` [Example 123, 4-[[1-[4-propoxy-phenylsulfonyl]-5-(trifluoromethyl)-1H-indol-2-yl]methyl]benzoic acid] are 36%, 646 nM, 60% and 217 nM.
`O=C(O)c1ccc(Cc2cc3cc(C(F)(F)F)ccc3n2S(=O)(=O)c2ccc(Oc3ccccc3)nc2)cc1` [Example 130, 4-[[1-[(6-phenoxy-3-pyridinyl)sulfonyl]-5-(trifluoromethyl)-1H-indol-2-yl]methyl]benzoic acid]: in assay [1], the Emax worked out at 22% and the EC50 was 1700 nM. In assay [2], the Emax was 30% and the EC50 was found to be 347 nM.
For `O=C(O)c1ccc(Cc2cc3cc(C(F)(F)F)ccc3n2S(=O)(=O)c2ccc(N3CCOCC3)nc2)cc1` [Example 135, 4-[[1-[[6-(4-morpholinyl)-3-pyridinyl]sulfonyl]-5-(trifluoromethyl)-1H-indol-2-yl]methyl]benzoic acid] the same measures were 19%, 917 nM, 31% and 643 nM.
On the same counts, the results for `CC(C)(C)c1ccc(S(=O)(=O)n2c(Cc3ccc(C(=O)O)cc3)cc3cc(C(F)(F)F)ccc32)cc1` [Example 21, 4-[[1-[[4-(1,1-dimethylethyl)phenyl]sulfonyl]-5-(trifluoromethyl)-1H-indol-2-yl]methyl]benzoic acid] are 35%, 240 nM, 46% and 121 nM.
On to `CC(C)(C)c1cccc(S(=O)(=O)n2c(Cc3ccc(C(=O)O)cc3)cc3c(Cl)c(Cl)ccc32)c1` [Example 119, 4-[[1-[[3-(1,1-dimethylethyl)phenyl]sulfonyl]-4-(chloro)-5-(chloro)-1H-indol-2-yl]methyl]benzoic acid], for which, in assay [1], the Emax turned out to be 82% and the EC50 was 266 nM. Also, in assay [2], the Emax came to 71% and a half-maximal response (EC50) required 65 nM.
For `CC(C)(C)c1cccc(S(=O)(=O)n2c(Cc3ccc(CNS(C)(=O)=O)cc3)cc3cc(C(F)(F)F)ccc32)c1` [Example 227, N-[4-[[1-[[3-(1,1-dimethylethyl)phenyl]sulfonyl]-5-(trifluoromethyl)-1H-indol-2-yl]methyl]benzyl]-methanesulfonamide] the same measures were 86%, 316 nM, 73% and 219 nM.
Regarding `CC(C)(C)c1cccc(S(=O)(=O)n2c(Cc3ccc(-c4n[nH]c(=O)o4)cc3)cc3cc(C(F)(F)F)ccc32)c1` [Example 226, 5-[4-[[1-[[3-(1,1-dimethylethyl)phenyl]sulfonyl]-5-(trifluoromethyl)-1H-indol-2-yl]methyl]-phenyl]-3H-[1,3,4]oxadiazol-2-one], the Emax in assay [1] turned out to be 70%; in assay [2] it was 82%. For the same molecule, the results for the EC50 in assay [1] and in assay [2] were greater than 10000 nM and 465 nM, respectively.
On to `CCCCCc1ccc(S(=O)(=O)n2c(Cc3ccc(C(=O)O)cc3)cc3cc(Cl)ccc32)cc1` [Example 170, 4-[[1-[4-pentyl-phenylsulfonyl]-5-(chloro)-1H-indol-2-yl]methyl]benzoic acid], for which the Emax was found to be 26% in assay [1] and 42% in assay [2]. In addition, the EC50 in assay [1] was greater than 10000 nM; in assay [2] it was 1740 nM.
In the case of `COc1ccc(S(=O)(=O)n2c(Cc3ccc(C(=O)O)cc3)cc3cc(Cl)ccc32)cc1` [Example 165, 4-[[1-[4-methoxy-phenylsulfonyl]-5-(chloro)-1H-indol-2-yl]methyl]benzoic acid], in assay [1], the Emax is 37% and it took 2930 nM to reach a half-maximal effect (EC50). Also, in assay [2], the Emax came to 51% and the EC50 turned out to be 1140 nM.
On to `Cc1cccc(S(=O)(=O)n2c(Cc3ccc(C(=O)O)cc3)cc3cc(C(F)(F)F)ccc32)c1` [Example 141, 4-[[1-[(3-methylphenyl)sulfonyl]-5-(trifluoromethyl)-1H-indol-2-yl]methyl]benzoic acid], for which the Emax in assay [1] is 30%; in assay [2], 41%. Besides, the values for the EC50 in assay [1] and in assay [2] were 364 nM and 285 nM, respectively.
